We go through 12 molecules from patent publication US4432973A, “Benzoyl- and α-hydroxybenzyl-phenyl-glycosides and application thereof in therapeutics” (Societe de Recherches Industrielles (S.O.R.I.), priority 1980, dated 1984).

Series [1] can be described thus: Veinous thrombosis: veinous anti-thrombus activity. The format is in vivo. Conditions: Rattus norvegicus, ip, 50 mg/kg IP, 4 to 5 hours after administration, read-out: Diminution of veinous thrombus.
The nature of series [2]: Acute toxicity in the mouse by the I.P. route. The format is in vivo. Conditions: for LD50: read-out: DL-50 (lethal dose involving the death of half of the animals). The text has this: The acute toxicity was studied in the mouse by the I.P. route. It is expressed in the form of DL-50 (lethal dose involving the death of half of the animals) or DL-0 (maximum non-lethal dose).

A short description of series [3]: Anti-hypoxic activity: survival to hypoxia (nitrogen-oxygen 95:5). The series is classed as in vivo, mouse (Swiss male). Particulars: I.P., 1/10th of LD-50 or 100 mg/kg when LD-0 ≥ 800 mg/kg; up to 15 minutes; mouse. The procedure, abridged: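 Groups of 20 male Swiss mice (20–30 g) received compound i.p. at 1/10 LD-50, or 100 mg/kg when LD-0 ≥800 mg/kg, then were placed in nitrogen-oxygen 95:5 v/v. Survival time was recorded up to 15 min and expressed as % survival versus untreated controls; Duxil reference given at 18 mg/kg i.p.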

Series [4] concerns blood platelet aggregation. The series can be described thus: Spontaneous aggregation: blood platelet anti-aggregation activity. The series is classed as in vivo, rat (adult male). Particulars: Platelet, t=5 hours, rat; for inhibition in vivo at 100 mg/kg: ip, 100 mg/kg I.P. The protocol: The technique used is that of Sanders described in Laboratory Animal Science 27 (No. 5), pages 757-761 (1977).
After administration at 100 mg/kg I.P. (unless specified to the contrary in Table V hereinbelow) of the product to be tested to adult male reproducing rats, two blood samples are taken, one on sodium citrate and the other on sodium citrate treated with formaldehyde at instant t=5 hours.
After centrifugation of the samples, a platelet count is made on the supernatant liquid. The spontaneous aggregation index according to Wu and Hook Stroke 6, 521-524 (1975) is expressed by the relation: [formula]

A short description of series [5]: Anti-ulcer activity: ulcer caused by aspirin. Conditions: 100 mg/kg I.P.; aspirin 192 mg/kg per os; standardised to control batch and cimetidine (index 1). The series is classed as in vivo, rat (male Wistar). The procedure, abridged: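 Male Wistar rats weighing 180 to 200 g were fasted from t=0, when they received a first dose of the test product. At t=18 hours they were given 2 ml of an ulcer-forming suspension of aspirin at 192 mg/kg per os, followed by a second dose of the product. At t=22 hours the animals were sacrificed and their ulcers graded: 1 for small point-like, 3 for more extensive, 9 for highly extensive or very deep. Scores were standardised against a control batch and against cimetidine, the reference, assigned index 1.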

Series [6] in a line: Veinous thrombosis: veinous anti-thrombus activity. The format is in vivo. Conditions: Rattus norvegicus, ip, 100 mg/kg I.P., 4 to 5 hours after administration, read-out: Diminution of veinous thrombus. How it is done: The technique used is similar to the one described by Peterson-Zucker in Thrombo.Diath.Haemorh. 23, 1, (1970).
An occlusive thrombus is created in the […] vena cava of a rat by the combined action of an endothelial alteration and a veinous stasis for 15 mins. and 4 to 5 hours after administration of the product to be tested (100 mg/kg I.P.).

As for `Cc1ccc(C(O)c2cccc(O[C@@H]3OC[C@@H](O)[C@H](O)[C@H]3O)c2)cc1` (single isomer, unassigned) [Example 106], the inhibition in vivo at 50 mg/kg in series [1] was not below 50%. For the same molecule, the LD50 in series [2] (in vivo, ip, I.P.) came to 500 mg/kg.

On to `O=C(c1ccc(O[C@@H]2OC[C@@H](O)[C@H](O)[C@H]2O)cc1)c1ccc([N+](=O)[O-])cc1` [Example 1, [4-(4-nitrobenzoyl)-phenyl]-β-D-xylopyranoside], for which, in series [3], the “Survival (survival percentage to hypoxic aggression)” value is “+++ (higher than or equal to 80%)”. In series [4], this molecule yielded an inhibition in vivo at 100 mg/kg not below 40%. In addition, in series [5], the Ulcer index was 0.56. The “DL-0 (maximum non-lethal dose)” value in series [2] (in vivo, ip) is reported as more than 800 mg/kg IP.

As to `Nc1ccc(C(=O)c2ccc(O[C@@H]3OC[C@@H](O)[C@H](O)[C@H]3O)cc2)cc1` [Example 8], the “Survival (survival percentage to hypoxic aggression)” value in series [3] was “+++ (higher than or equal to 80%)”. The figures for the inhibition in vivo at 100 mg/kg in series [6] and in series [4] were not below 50% and not below 40%, respectively. This molecule came in with a Ulcer index in series [5] of 0.25. Moreover, the “DL-0 (maximum non-lethal dose)” value in series [2] (in vivo, ip) is more than 800 mg/kg IP.

As for `Cc1ccc(C(=O)c2ccc(O[C@@H]3OC[C@@H](O)[C@H](O)[C@H]3O)cc2)cc1` [Example 12], the “Survival (survival percentage to hypoxic aggression)” value in series [3] is “++ (from 50 to 79%)”. This molecule also yielded an inhibition in vivo at 100 mg/kg in series [4] of 25 to 39%. In series [5], this molecule yielded a Ulcer index of 0.26. In addition, the “DL-0 (maximum non-lethal dose)” value in series [2] (in vivo, ip) is more than 800 mg/kg IP.

In the case of `Cc1ccccc1C(=O)c1ccc(O[C@@H]2OC[C@@H](O)[C@H](O)[C@H]2O)cc1` [Example 14], the inhibition in vivo at 100 mg/kg in series [6] is not below 50%. For the same molecule, the inhibition in vivo at 75 mg/kg in series [4] (75 mg/kg IP) was not below 40%. Moreover, the LD50 in series [2] (in vivo, ip, I.P.) came to 740 mg/kg.

Take `COc1ccc(C(=O)c2cccc(O[C@@H]3OC[C@@H](O)[C@H](O)[C@H]3O)c2)cc1` [Example 54]: the inhibition in vivo at 100 mg/kg is 30 to 49% in series [6] and not below 40% in series [4]. The molecule further yielded a Ulcer index in series [5] of 0.57. The “DL-0 (maximum non-lethal dose)” value in series [2] (I.P.) is given as more than 800 mg/kg IP.

Regarding `CC(=O)N[C@H]1[C@H](Oc2ccc(C(=O)c3ccc(Cl)cc3)cc2)O[C@H](COS(=O)(=O)O)[C@@H](OS(=O)(=O)O)[C@@H]1OS(=O)(=O)O` [Example 67, [4-(4-chlorobenzoyl)-phenyl]-3,4,6-tri-(ammonium-sulfate)-2-N-acetyl-β-D-glucosaminide], the figures for the inhibition in vivo at 100 mg/kg in series [6] and in series [4] were 30 to 49% and 25 to 39%, respectively. Further, the Ulcer index in series [5] worked out at 0.81. Moreover, the “DL-0 (maximum non-lethal dose)” value in series [2] (I.P.) is recorded as more than 800 mg/kg IP.

Consider `O=[N+]([O-])c1ccc(C(O)c2ccc(O[C@@H]3OC[C@@H](O)[C@H](O)[C@H]3O)cc2)cc1` (stereo partly drawn) [Example 97, [4-(4-nitro-α-hydroxybenzyl)-phenyl]-β-D-xylopyranoside], for which the inhibition in vivo at 100 mg/kg in series [6] is not below 50%; in series [4] it was not below 40%. In series [5], this molecule returned a Ulcer index of 0.52. For the same molecule, the LD50 in series [2] (in vivo, ip, I.P.) was more than 1000 mg/kg.

Consider `Cc1cc(C(=O)c2ccccc2Cl)cc(C)c1O[C@@H]1OC[C@@H](O)[C@H](O)[C@H]1O` [Example 102], for which, in series [3], the “Survival (survival percentage to hypoxic aggression)” value is listed as “+++ (higher than or equal to 80%)”. Further, the inhibition in vivo at 100 mg/kg was 30 to 49% in series [6] and not below 40% in series [4]. The same molecule displayed a Ulcer index in series [5] of 0.49. Also, the “DL-0 (maximum non-lethal dose)” value in series [2] (in vivo, ip) is more than 800 mg/kg IP.

Turning to `CC(=O)O[C@@H]1[C@@H](OC(C)=O)[C@H](Oc2ccc(C(=O)c3ccc([N+](=O)[O-])cc3)cc2C)OC[C@H]1OC(C)=O` [Example 104], the “Survival (survival percentage to hypoxic aggression)” value in series [3] is “++ (from 50 to 79%)”. Moreover, in series [4], the inhibition in vivo at 100 mg/kg is not below 40%. For the same molecule, the Ulcer index in series [5] was found to be 0.84. Moreover, the “DL-0 (maximum non-lethal dose)” value in series [2] (in vivo, ip) is more than 800 mg/kg IP.

Regarding `CC(=O)O[C@@H]1[C@@H](OC(C)=O)[C@H](Oc2c(C)cc(C(=O)c3ccc(Cl)cc3)cc2C)OC[C@H]1OC(C)=O` [Example 114], the “Survival (survival percentage to hypoxic aggression)” value in series [3] is reported as “++ (from 50 to 79%)”. The molecule further gave an inhibition in vivo at 100 mg/kg in series [4] of 25 to 39%. In addition, the “DL-0 (maximum non-lethal dose)” value in series [2] (in vivo, ip) is reported as more than 800 mg/kg IP.

Turning to `CC(=O)N[C@H]1[C@H](Oc2ccc(C(=O)c3ccc(C(F)(F)F)cc3)cc2)O[C@H](CO)[C@@H](O)[C@@H]1O` [Example 118], the “Survival (survival percentage to hypoxic aggression)” value in series [3] is listed as “++ (from 50 to 79%)”. The molecule further came in with an inhibition in vivo at 100 mg/kg in series [4] of 25 to 39%. The molecule also gave a Ulcer index in series [5] of 0.53. In addition, the “DL-0 (maximum non-lethal dose)” value in series [2] (in vivo, ip) is more than 800 mg/kg IP.
